Experimental data taken from ChEMBL document CHEMBL1201862, “PubChem BioAssay data set” (2004).
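In this assay, cells in 96-well plates receive the compound at five concentrations for 48 hours. Endpoints are linearly interpolated between the surrounding concentrations. GI50 is the concentration that inhibits growth by half.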 Calls of active or inactive are those of the source. No stated cut-off is given here; in the data, active = GI50 up to about 1.1 µM and inactive = higher.

How the values were obtained:
Assay in all cases: inhibition of tumour cell growth, NCI panel, 48 h
[1] = test system: HCT-15
[2] = test system: KM12
[3] = test system: SF-295
[4] = test system: M14
[5] = test system: SK-MEL-5
[6] = test system: BT-549
[7] = test system: SR
[8] = test system: U-251
[9] = test system: UACC-257
[10] = test system: MCF7
[11] = test system: HCT-116
[12] = test system: COLO 205
[13] = test system: Malme-3M
[14] = test system: 786-0
[15] = test system: HL-60
[16] = test system: A549
[17] = test system: SNB-75
[18] = test system: MDA-MB-435
[19] = test system: TK-10

SMILES | GI50 [1] | GI50 [2] | GI50 [3] | GI50 [4] | GI50 [5] | GI50 [6] | GI50 [7] | GI50 [8] | GI50 [9] | GI50 [10] | GI50 [11] | GI50 [12] | GI50 [13] | GI50 [14] | GI50 [15] | GI50 [16] | GI50 [17] | GI50 [18] | GI50 [19]
CCCCCC(=O)Nc1[nH]nnc1C#N | > 100 µM | > 100 µM (inactive) | > 100 µM (inactive) | > 100 µM (inactive) | > 100 µM (inactive) | > 100 µM (inactive) | > 100 µM (inactive) | > 100 µM (inactive) | > 100 µM (inactive) | > 100 µM (inactive) | > 100 µM (inactive) | > 100 µM (inactive) | > 100 µM (inactive) | > 100 µM (inactive) | > 100 µM (inactive) | > 100 µM (inactive) | > 100 µM (inactive) | > 100 µM (inactive) | > 100 µM (inactive)
O=C1C[C@@H](Sc2ccccc2)C2(OCCO2)C2ON3CCCC[C@H]3[C@H]12 (stereo not given in full) | 2.81 µM | 4.48 µM (inactive) | 15.9 µM (inactive) | 10.7 µM (inactive) | 7.74 µM (inactive) | 5.81 µM (inactive) | 0.927 µM (active) | 4.73 µM (inactive) | 14.2 µM (inactive) | 6.32 µM (inactive) | 4.33 µM (inactive) | 7.8 µM (inactive) | 8.41 µM (inactive) | 3.53 µM (inactive) | 1.67 µM (inactive) | 7.36 µM (inactive) | 12.4 µM (inactive) | 11.7 µM (inactive) | 6.34 µM (inactive)
NC(=O)c1nnsc1N/N=C/c1ccc([N+](=O)[O-])cc1 | > 100 µM | > 100 µM (inactive) | > 100 µM (inactive) | > 100 µM (inactive) | > 100 µM (inactive) | 19.7 µM (inactive) | 33.9 µM (inactive) | > 100 µM (inactive) | > 100 µM (inactive) | > 100 µM (inactive) | > 100 µM (inactive) | > 100 µM (inactive) | > 100 µM (inactive) | 41 µM (inactive) | 73.5 µM (inactive) | > 100 µM (inactive) | > 100 µM (inactive) | 76.9 µM (inactive) | –
Cn1c(-c2ccc(C=O)o2)ccc1-c1ccc(C=O)o1 | 34 µM | 36.2 µM (inactive) | 58.7 µM (inactive) | 31 µM (inactive) | 30.9 µM (inactive) | 55.8 µM (inactive) | 30.9 µM (inactive) | 40.7 µM (inactive) | 51.4 µM (inactive) | 28.8 µM (inactive) | 18.4 µM (inactive) | 87.7 µM (inactive) | 31.7 µM (inactive) | 61.1 µM (inactive) | 19.8 µM (inactive) | > 100 µM (inactive) | 39.5 µM (inactive) | 38.6 µM (inactive) | > 100 µM (inactive)
COc1cc(C2OC(N)=C(C#N)C3=C2C(C)CCC3)cc(OC)c1OC (stereo not given) | > 100 µM | > 100 µM (inactive) | 28.9 µM (inactive) | > 100 µM (inactive) | > 100 µM (inactive) | > 100 µM (inactive) | 0.136 µM (active) | > 100 µM (inactive) | > 100 µM (inactive) | > 100 µM (inactive) | > 100 µM (inactive) | > 100 µM (inactive) | 39.9 µM (inactive) | 42.6 µM (inactive) | > 100 µM (inactive) | – | 10.9 µM (inactive) | > 100 µM (inactive) | > 100 µM (inactive)
CCOP(=O)(OCC)C(NC(=O)C(C(F)(F)F)C(F)(F)F)c1ccccc1 (stereo not given) | > 100 µM | > 100 µM (inactive) | > 100 µM (inactive) | > 100 µM (inactive) | > 100 µM (inactive) | > 10 µM (inactive) | 59.6 µM (inactive) | > 100 µM (inactive) | > 100 µM (inactive) | 97.9 µM (inactive) | > 100 µM (inactive) | > 100 µM (inactive) | > 100 µM (inactive) | > 100 µM (inactive) | 24.6 µM (inactive) | > 100 µM (inactive) | > 100 µM (inactive) | > 100 µM (inactive) | > 100 µM (inactive)
NC1=NNC2(C(N)=N1)c1ccccc1-c1ccccc12 | > 10 µM | > 10 µM (inactive) | > 10 µM (inactive) | > 10 µM (inactive) | > 10 µM (inactive) | > 10 µM (inactive) | > 10 µM (inactive) | – | > 10 µM (inactive) | > 10 µM (inactive) | > 10 µM (inactive) | > 10 µM (inactive) | > 10 µM (inactive) | > 10 µM (inactive) | > 10 µM (inactive) | > 10 µM (inactive) | > 10 µM (inactive) | > 10 µM (inactive) | > 10 µM (inactive)
CC(=O)Nc1nc(C)c(S(=O)(=O)NC(=O)N2c3ccccc3CCc3ccccc32)s1 | > 100 µM | > 100 µM (inactive) | > 100 µM (inactive) | > 100 µM (inactive) | > 100 µM (inactive) | > 100 µM (inactive) | > 100 µM (inactive) | > 100 µM (inactive) | > 100 µM (inactive) | > 100 µM (inactive) | > 100 µM (inactive) | > 100 µM (inactive) | > 100 µM (inactive) | > 100 µM (inactive) | > 100 µM (inactive) | > 100 µM (inactive) | > 100 µM (inactive) | > 100 µM (inactive) | > 100 µM (inactive)
Nc1ccc(Cc2ccc(N)c(C(=O)O)c2)cc1C(=O)O | > 100 µM | > 100 µM (inactive) | > 100 µM (inactive) | > 100 µM (inactive) | > 100 µM (inactive) | > 100 µM (inactive) | > 100 µM (inactive) | > 100 µM (inactive) | > 100 µM (inactive) | > 100 µM (inactive) | > 100 µM (inactive) | > 100 µM (inactive) | > 100 µM (inactive) | > 100 µM (inactive) | > 100 µM (inactive) | > 100 µM (inactive) | > 100 µM (inactive) | > 100 µM (inactive) | > 100 µM (inactive)
CC(C)(C)OC[C@H](O)CC#N | > 100 µM | > 100 µM (inactive) | > 100 µM (inactive) | > 100 µM (inactive) | > 100 µM (inactive) | > 100 µM (inactive) | > 100 µM (inactive) | > 100 µM (inactive) | > 100 µM (inactive) | > 100 µM (inactive) | > 100 µM (inactive) | > 100 µM (inactive) | > 100 µM (inactive) | > 100 µM (inactive) | > 100 µM (inactive) | > 100 µM (inactive) | > 100 µM (inactive) | > 100 µM (inactive) | > 100 µM (inactive)
CCc1n[nH]c(=O)[nH]1 | > 100 µM | > 100 µM (inactive) | > 100 µM (inactive) | > 100 µM (inactive) | > 100 µM (inactive) | > 100 µM (inactive) | > 100 µM (inactive) | – | > 100 µM (inactive) | > 100 µM (inactive) | > 100 µM (inactive) | > 100 µM (inactive) | > 100 µM (inactive) | > 100 µM (inactive) | > 10 µM (inactive) | > 100 µM (inactive) | > 100 µM (inactive) | > 100 µM (inactive) | > 100 µM (inactive)
